Entries after “also recorded” stand apart in the source; their conditions may differ.

For data set [1], the system named is AML-RAS cells. Briefly: AlamarBlue cell viability assay on AML-RAS cells. It is filed as cell-based, human. To be noted: 3 days after treatment; 20 mM LiCl, 5 uM Kenpaullone or 2 uM BIO. As to the method: (§1) Cell Viability Assay. To determine the effects of various drug treatments on oncogenic RAS mutant cells, an AlamarBlue assay (Invitrogen) was performed. 2500 cells were seeded in triplicate in 96-well plates one day prior to drug treatments. For TRI-102 and AML-RAS cells, fluorescence was measured at 72 hrs after drug addition. For other oncogenic RAS cells, fluorescence was measured 120 hrs after drug addition.
(§2) Cell Viability Assay. To determine the effects of various drug treatments on oncogenic RAS mutant cells, AlamarBlue assay (Invitrogen) was performed. 2500 cells were seeded in triplicate in 96-well plates one day prior to drug treatments. For TRI-102 and AML-RAS cells, fluorescence was measured at 72 hrs after drug addition. For other oncogenic RAS cells, fluorescence was measured 120 hrs after drug addition.

Data set [2] deals with patient-derived cancer cells with oncogenic RAS mutations (lung, colon, pancreatic, melanocytic). Briefly: AlamarBlue cell viability assay on panel of 17 patient-derived oncogenic RAS cancer cells. The note with it: panel of 17 lines; viable cells vs vehicle after 5 days. It is filed as cell-based, human. As to the method: as §1, §2
The subject of data set [3] is A549 lung cancer cells. As to the kind of experiment: AlamarBlue cell viability assay on A549 cells. The data set is classed as cell-based, human. The note with it: viable cells vs vehicle after 5 days; SMARCA4 frame shift deletion. On the procedure: as §1, §2
For data set [4], the system named is AML-RAS cells. Briefly: Soft agar assay on AML-RAS cells. It is filed as cell-based, human. To be noted: 20 mM LiCl; colonies counted after 3-4 weeks. On the procedure:
(§3) Softagar Assay. Soft agar assays were performed in triplicate in 6-well plates. For each well, a bottom layer containing 1% agar in growth medium was added. Then 10,000 cells were plated in 0.5% agar in growth medium. Growth medium was added to each well and changed every 3 days. The colonies were counted after 3-4 weeks.

In data set [5] the test system is AML-RAS xenografts. As to the kind of experiment: AML-RAS cell xenograft model. The note with it: LiCl 340 mg/kg intraperitoneal every two days, 28 days. The data set is classed as in vivo, nude mice. On the procedure: Xenograft. 10^6 AML-RAS cells were resuspended in PBS and inoculated subcutaneously into both flanks of 6-week old female nude mice (Charles River Laboratory). Seven days after transplantation, animals were treated with intraperitoneal injections of LiCl (340 mg/kg body weight), or an equal volume of vehicle (PBS) every two days. Tumor volume (mm3) and body weight (g) were measured every 2 days. The tumor volume was estimated by using caliper measurements based on formula W^2×L/2 (L is the length of the tumor, W is the width of the tumor). All experiments were approved by and conducted in compliance with the Yale Animal Resources Center and the Institutional Animal Care and Use Committee under protocol number 2008-10230.
Xenograft. 10^6 AML-RAS cells were resuspended in PBS and inoculated subcutaneously into both flanks of 6-week old female nude mice (Charles River Laboratory). Seven days after transplantation, animals were treated with intraperitoneal injections of LiCl (340 mg/kg body weight), or an equal volume of vehicle (PBS) every two days. Tumor volume (mm3) and body weight (g) were measured every 2 days. The tumor volume was estimated using caliper measurements based on formula W^2×L/2 (L is the length of the tumor, W is the width of the tumor). […]

Data set [6] concerns H1792 cells. As to the kind of experiment: Soft agar assay on H1792 cells. It is filed as cell-based, human. The note with it: 20 mM LiCl. As to the method:
as §3

The test system of data set [7] is A549 cells. As to the kind of experiment: Soft agar assay on A549 cells. It is filed as cell-based, human. The note with it: 20 mM LiCl. As to the method: as §3

With `O=C1Nc2cc(Br)ccc2/C1=C1/Nc2ccccc2/C1=N\O` [BIO, 6-bromoindirubin-30-oxime], the “growth of the AML-RAS cells (viable cells)” value (from here on “growth … (viable cells)”) in data set [1] is “specifically inhibited the growth”. Also, the “growth of patient-derived cancer cells harboring oncogenic KRAS, NRAS or HRAS mutations” value (from here on “growth … NRAS or HRAS mutations”) in data set [2] is recorded as “suppresses the growth”. Besides, the “growth of A549 lung cancer cells” value in data set [3] was “not significantly suppressed”.

For the molecule `O=C1Cc2c([nH]c3ccc(Br)cc23)-c2ccccc2N1` [Kenpaullone], the “growth … (viable cells)” value in data set [1] is “specifically inhibited the growth”. Besides, the “growth … NRAS or HRAS mutations” value in data set [2] is “suppresses the growth”. The “growth of A549 lung cancer cells” value in data set [3] was “not significantly suppressed”.

Turning to `[Cl-].[Li+]` [LiCl, lithium chloride], the “growth … (viable cells)” value in data set [1] is on record as “specifically impaired the growth”. Further, the “anchorage-independent growth of the AML-RAS cells in soft agar” value in data set [4] is given as “prevented; also recorded: dramatically suppressed”. Moreover, in data set [5] (nude mice), the “tumor growth in AML-RAS xenografts” value was “dramatically suppressed”. Moreover, the “health of the recipient mice (body weight)” value in data set [5] (tumor-suppressing dose) is given as “not affected”. For the same molecule, in data set [2], the “growth … NRAS or HRAS mutations” value is given as “suppresses the growth”. In data set [3], the “growth of A549 lung cancer cells” value is “not significantly suppressed”. Moreover, the “anchorage-independent growth of the H1792 cells in soft agar” value in data set [6] is “completely inhibited; also recorded: dramatically inhibited”. For the same molecule, the “anchorage-independent growth of the A549 cells in soft agar” value in data set [7] is “failed to suppress”.
